≈ marks a conversion by molar mass, not a printed value. Like-named read-outs stand apart in the source and are kept apart here.
Assays:
Test in all cases: Antimicrobial activity, minimum inhibitory concentration (MIC)
Assay type in all cases: cell-based
[1] = system: methicillin resistant Staphylococcus aureus (MRSA) BAA-41
Protocol: (§1) The antimicrobial activity of CSA-148 was determined in comparison to CSA-44, a CSA compound known to have very high antimicrobial activity compared to other CSAs. The microbes used in the comparative test was were Candida albicans 90028, methicillin resistant Staphylococcus aureus (MRSA) BAA-41, and Pseudomonas aeruginosa (PA01 47085).

[2] = system: Pseudomonas aeruginosa (PA01 47085)
Protocol: as §1

[3] = system: Candida albicans 90028
Protocol: as §1
The measured MICs for C. albicans 90028 were based on 100% inhibition of growth (i.e. no cloudiness). Judging by 50% inhibition, which is more difficult but is typical for fungal MICs, the MIC for CSA-44 relative to C. albicans can be extrapolated to 4 μg/ml, and the MIC for CSA-148 relative to C. albicans can be extrapolated to 2 μg/ml.

| SMILES | MIC [1] | MIC [2] | MIC ([3]; C. albicans 90028, based on 100% inhibition of growth (no cloudiness)) | MIC ([3]; C. albicans, judging by 50% inhibition, extrapolated) | MIC ([1]; Staphylococcus aureus, read-out: MIC) | MIC ([2]; Pseudomonas aeruginosa, read-out: MIC) | MIC ([3]; Candida albicans, 90028, C. albicans 90028, based on 100% inhibition of growth (no cloudiness), read-out: MIC) | MIC ([3]; Candida albicans, 90028, C. albicans, judging by 50% inhibition, extrapolated, read-out: MIC) |
| --- | --- | --- | --- | --- | --- | --- | --- | --- |
| CCCCCCCCOC(=O)CC[C@@H](C)[C@H]1CC[C@H]2[C@@H]3[C@H](OC(=O)CCN)C[C@@H]4C[C@H](OC(=O)CCN)CC[C@]4(C)[C@H]3C[C@H](OC(=O)CCN)[C@]12C [CSA-44] | 2 µg/mL (≈ 2.72 µM) | 2 µg/mL (≈ 2.72 µM) | 8 µg/mL (≈ 10.9 µM) | 4 µg/mL (≈ 5.45 µM) | – | – | – | – |
| CC(C)=CCC/C(C)=C/COC(=O)CC[C@@H](C)[C@H]1CC[C@H]2[C@@H]3[C@H](OC(=O)CCN)C[C@@H]4C[C@H](OC(=O)CCN)CC[C@]4(C)[C@H]3C[C@H](OC(=O)CCN)[C@]12C [CSA-148] | – | – | – | – | 2 µg/mL (≈ 2.64 µM) | 2 µg/mL (≈ 2.64 µM) | 4 µg/mL (≈ 5.28 µM) | 2 µg/mL (≈ 2.64 µM) |
